Several values for one entry are separate records, joined by “and”; a condition that tells them apart may be missing. Equal values may be shown once. Read-outs that look alike come from different tables or passages of the source.
Key:
[1] = system: Bacillus anthracis Sterne; test: microbe, parasite or virus in culture; type: cell-based
[2] = system: Bacillus anthracis Sterne; test: microbe, parasite or virus in culture; type: cell-based; remark: listed apart in the source

Row | SMILES | MIC ([1]; 5 h, read-out: LB MIC) | MIC ([1]; read-out: LB B.a. MIC) | MIC ([2]; 5 h, read-out: MH MIC) | MIC ([2]; read-out: MH B.a. MIC)
1 | O=C(Nc1ccc(NS(=O)(=O)c2ccc(Cl)c(Cl)c2)cc1)Nc1ccc([N+](=O)[O-])cc1 [5{1}, 3,4-Dichloro-(N-(4-(((4-nitrophenyl)amino)carbonyl)aminophenyl))benzenesulfonamide] | 2.8 µM and 1.3 µg/mL | 2.8 µM and 1.3 µg/mL | 3.8 µM and 1.8 µg/mL | 3.8 µM and 1.8 µg/mL
2 | O=C(Nc1ccc(NS(=O)(=O)c2ccc(Cl)c(Cl)c2)cc1)Nc1cccc([N+](=O)[O-])c1 [5{2}, 3,4-Dichloro-(N-(4-(((3-nitrophenyl)amino)carbonyl)aminophenyl))benzenesulfonamide] | > 240 µM and > 115 µg/mL | > 240 µM and > 115 µg/mL |  | 
3 | O=C(Nc1ccc(NS(=O)(=O)c2ccc(Cl)c(Cl)c2)cc1)Nc1ccccc1[N+](=O)[O-] [5{3}, 3,4-Dichloro-(N-(4-(((2-nitrophenyl)amino)carbonyl)aminophenyl))benzenesulfonamide] | > 240 µM and > 115 µg/mL | > 240 µM and > 115 µg/mL |  | 
4 | Nc1ccc(S(=O)(=O)Nc2ccc(NC(=O)Nc3ccccc3[N+](=O)[O-])cc2)cc1 [compound 9, 4-Amino-(N-(4-(((2-nitrophenyl)amino)carbonyl)aminophenyl))benzenesulfonamide] | 120 µM and 53 µg/mL |  |  | 

Source: paper PMC2888690 (Journal of combinatorial chemistry, 2009)
